{"source": "ChEMBL document CHEMBL1150317", "about": "“Discovery of aryl aminoquinazoline pyridones as potent, selective, and orally efficacious inhibitors of receptor tyrosine kinase c-Kit” (J Med Chem, 2008)", "key": {"[1]": {"target": "Tyrosine-protein kinase Lck (Homo sapiens, UniProt P06239)", "description": "Inhibition of Lck by TR-FRET assay"}, "[2]": {"target": "Mitogen-activated protein kinase 8 (Homo sapiens) (UniProt P45983)", "test": "Inhibition of JNK1 at 1 uM relative to control"}, "[3]": {"target": "MAP kinase-activated protein kinase 2 (Homo sapiens) (UniProt P49137)", "test": "Inhibition of MAPKAPK2 at 1 uM relative to control"}, "[4]": {"target": "Dual specificity mitogen-activated protein kinase kinase 1 (Homo sapiens) (UniProt Q02750)", "test": "Inhibition of MEK1 at 1 uM relative to control"}, "[5]": {"target": "Rho-associated protein kinase 2 (Homo sapiens) (UniProt O75116)", "test": "Inhibition of ROCK2 at 1 uM relative to control"}, "[6]": {"target": "Glycogen synthase kinase-3 beta (Homo sapiens) (UniProt P49841)", "test": "Inhibition of GSK3-beta at 1 uM relative to control"}, "[7]": {"target": "Mitogen-activated protein kinase 14 (Homo sapiens) (UniProt Q16539)", "test": "Inhibition of p38alpha at 1 uM relative to control"}, "[8]": {"target": "Mitogen-activated protein kinase 9 (Homo sapiens) (UniProt P45984)", "test": "Inhibition of JNK2 at 1 uM relative to control"}, "[9]": {"test": "Inhibition of p38 by TR-FRET assay"}, "[10]": {"target": "Proto-oncogene tyrosine-protein kinase Src (Homo sapiens, UniProt P12931)", "description": "Inhibition of Src by TR-FRET assay"}, "[11]": {"test": "Inhibition of casein kinase 1 at 1 uM relative to control"}, "[12]": {"test": "Half life in Sprague-Dawley rat at 10 mg/kg, po", "assay_type": "ADME, organism-based", "set-up": "dose 10 mg/kg, route oral", "conditions": "in vivo"}, "[13]": {"target": "Ribosomal protein S6 kinase alpha-5 (Homo sapiens) (UniProt O75582)", "test": "Inhibition of MSK1 at 1 uM relative to control"}, "[14]": {"target": "Serine/threonine-protein kinase Chk2 (Homo sapiens) (UniProt O96017)", "sequence (O96017 whole entry)": "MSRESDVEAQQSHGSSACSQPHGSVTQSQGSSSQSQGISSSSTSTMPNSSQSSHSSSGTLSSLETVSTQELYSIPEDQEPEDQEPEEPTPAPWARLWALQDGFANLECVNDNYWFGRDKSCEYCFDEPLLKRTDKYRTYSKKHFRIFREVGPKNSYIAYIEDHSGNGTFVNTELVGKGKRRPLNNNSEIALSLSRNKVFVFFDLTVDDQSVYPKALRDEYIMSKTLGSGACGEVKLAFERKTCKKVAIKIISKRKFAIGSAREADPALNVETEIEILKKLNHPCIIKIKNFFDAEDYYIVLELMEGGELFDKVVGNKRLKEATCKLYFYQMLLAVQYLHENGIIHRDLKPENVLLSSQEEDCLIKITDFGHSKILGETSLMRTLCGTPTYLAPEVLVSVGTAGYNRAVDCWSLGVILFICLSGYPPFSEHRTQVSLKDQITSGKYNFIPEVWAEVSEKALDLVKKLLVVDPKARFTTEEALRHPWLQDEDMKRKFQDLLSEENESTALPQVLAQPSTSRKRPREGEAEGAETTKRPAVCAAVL", "test": "Inhibition of CHK2 at 1 uM relative to control"}, "[15]": {"target": "MAP kinase-activated protein kinase 5 (Homo sapiens) (UniProt Q8IW41)", "test": "Inhibition of PRAK at 1 uM relative to control"}, "[16]": {"target": "Dual specificity mitogen-activated protein kinase kinase 7 (Homo sapiens) (UniProt O14733)", "sequence (O14733 whole entry)": "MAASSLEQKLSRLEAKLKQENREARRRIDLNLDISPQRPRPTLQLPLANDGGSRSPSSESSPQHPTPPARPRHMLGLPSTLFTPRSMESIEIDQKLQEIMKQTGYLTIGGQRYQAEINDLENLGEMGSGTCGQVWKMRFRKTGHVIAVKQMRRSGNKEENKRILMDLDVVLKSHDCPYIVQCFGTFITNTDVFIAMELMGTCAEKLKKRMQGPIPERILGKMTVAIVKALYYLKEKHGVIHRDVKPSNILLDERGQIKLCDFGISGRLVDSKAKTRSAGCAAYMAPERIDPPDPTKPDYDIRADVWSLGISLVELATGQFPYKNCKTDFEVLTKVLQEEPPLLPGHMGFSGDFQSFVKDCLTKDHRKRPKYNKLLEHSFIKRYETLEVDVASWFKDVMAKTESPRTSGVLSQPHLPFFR", "test": "Inhibition of MKK7 at 1 uM relative to control"}, "[17]": {"test": "Inhibition of PKAalpha at 1 uM relative to control"}, "[18]": {"target": "Serine/threonine-protein kinase Chk1 (Homo sapiens) (UniProt O14757)", "test": "Inhibition of CHK1 at 1 uM relative to control"}, "[19]": {"target": "Cyclin-dependent kinase 2 (Homo sapiens) (UniProt P24941)", "test": "Inhibition of CDK2 at 1 uM relative to control"}, "[20]": {"target": "Ribosomal protein S6 kinase beta-1 (Homo sapiens) (UniProt P23443)", "sequence (P23443 whole entry, looked up)": "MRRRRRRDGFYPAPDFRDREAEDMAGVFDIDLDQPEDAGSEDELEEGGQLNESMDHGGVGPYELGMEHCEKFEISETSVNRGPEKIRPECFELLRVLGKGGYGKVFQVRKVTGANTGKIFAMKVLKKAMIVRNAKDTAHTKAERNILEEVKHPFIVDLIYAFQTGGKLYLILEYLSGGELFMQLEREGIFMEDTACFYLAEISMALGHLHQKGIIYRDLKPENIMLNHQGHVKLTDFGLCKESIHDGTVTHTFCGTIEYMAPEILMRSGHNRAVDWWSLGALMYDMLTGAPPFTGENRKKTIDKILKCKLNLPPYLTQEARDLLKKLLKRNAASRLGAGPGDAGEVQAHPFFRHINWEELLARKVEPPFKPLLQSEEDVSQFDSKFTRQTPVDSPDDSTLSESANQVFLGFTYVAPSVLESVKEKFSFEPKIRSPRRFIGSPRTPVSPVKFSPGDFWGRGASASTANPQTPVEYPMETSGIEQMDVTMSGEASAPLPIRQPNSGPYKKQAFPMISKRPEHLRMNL", "test": "Inhibition of P70S6 at 1 uM relative to control"}, "[21]": {"target": "Vascular endothelial growth factor receptor 2 (Homo sapiens, UniProt P35968)", "description": "Inhibition of KDR by TR-FRET assay"}, "[22]": {"target": "Protein kinase C gamma type (Homo sapiens) (UniProt P05129)", "test": "Inhibition of PKCgamma at 1 uM relative to control"}, "[23]": {"target": "RAC-alpha serine/threonine-protein kinase (Homo sapiens) (UniProt P31749)", "sequence (P31749 whole entry)": "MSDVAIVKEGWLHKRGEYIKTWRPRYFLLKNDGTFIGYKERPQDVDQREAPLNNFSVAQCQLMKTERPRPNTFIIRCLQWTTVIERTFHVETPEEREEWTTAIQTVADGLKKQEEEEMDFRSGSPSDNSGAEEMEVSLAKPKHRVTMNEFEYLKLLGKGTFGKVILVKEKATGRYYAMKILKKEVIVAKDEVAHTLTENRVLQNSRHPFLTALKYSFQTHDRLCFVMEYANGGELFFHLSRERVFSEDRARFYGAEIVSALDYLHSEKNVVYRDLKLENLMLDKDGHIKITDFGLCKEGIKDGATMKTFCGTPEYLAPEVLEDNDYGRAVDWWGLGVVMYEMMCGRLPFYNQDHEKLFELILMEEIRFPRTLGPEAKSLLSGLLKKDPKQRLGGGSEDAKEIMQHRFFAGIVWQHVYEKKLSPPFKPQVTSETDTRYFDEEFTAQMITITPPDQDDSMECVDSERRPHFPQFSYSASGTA", "test": "Inhibition of PKBalpha at 1 uM relative to control"}, "[24]": {"target": "5'-AMP-activated protein kinase subunit beta-1 (Homo sapiens) (UniProt Q9Y478)", "test": "Inhibition of AMPK at 1 uM relative to control"}, "[25]": {"target": "Serine/threonine-protein kinase Sgk1 (Homo sapiens) (UniProt O00141)", "test": "Inhibition of SGK1 at 1 uM relative to control"}, "[26]": {"test": "Volume of distribution at steady state in Sprague-Dawley rat at 1 mg/kg, iv", "assay_type": "ADME, organism-based", "set-up": "dose 1 mg/kg, route intravenous", "conditions": "in vivo, read-out: Vdss"}, "[27]": {"target": "Calcium/calmodulin-dependent protein kinase type IV (Homo sapiens) (UniProt Q16566)", "sequence (Q16566 whole entry)": "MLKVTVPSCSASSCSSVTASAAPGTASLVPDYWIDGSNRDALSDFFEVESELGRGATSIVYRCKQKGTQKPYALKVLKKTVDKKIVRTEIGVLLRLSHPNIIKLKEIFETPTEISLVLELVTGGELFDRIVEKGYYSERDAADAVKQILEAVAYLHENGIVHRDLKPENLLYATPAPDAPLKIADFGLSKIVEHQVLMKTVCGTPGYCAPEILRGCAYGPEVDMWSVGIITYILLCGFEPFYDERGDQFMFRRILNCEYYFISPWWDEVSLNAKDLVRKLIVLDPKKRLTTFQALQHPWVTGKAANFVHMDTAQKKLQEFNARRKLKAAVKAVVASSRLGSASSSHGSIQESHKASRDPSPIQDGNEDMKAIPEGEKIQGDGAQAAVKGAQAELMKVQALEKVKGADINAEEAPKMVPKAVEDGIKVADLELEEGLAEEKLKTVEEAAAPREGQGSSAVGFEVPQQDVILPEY", "test": "Inhibition of CAMK4 at 1 uM relative to control"}, "[28]": {"target": "Cyclin-dependent kinase 1 (Homo sapiens) (UniProt P06493)", "sequence (P06493 whole entry, looked up)": "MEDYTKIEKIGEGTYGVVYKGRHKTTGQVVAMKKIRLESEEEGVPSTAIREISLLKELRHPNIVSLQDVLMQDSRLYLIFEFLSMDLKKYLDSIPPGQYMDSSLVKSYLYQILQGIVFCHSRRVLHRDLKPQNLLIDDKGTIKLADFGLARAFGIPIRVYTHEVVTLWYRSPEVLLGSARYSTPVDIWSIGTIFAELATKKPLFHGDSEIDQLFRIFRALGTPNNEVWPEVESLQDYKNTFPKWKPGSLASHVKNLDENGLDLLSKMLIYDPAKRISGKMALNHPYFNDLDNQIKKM", "test": "Inhibition of CDK1 at 1 uM relative to control"}, "[29]": {"target": "Mitogen-activated protein kinase 10 (Homo sapiens) (UniProt P53779)", "test": "Inhibition of JNK3 at 1 uM relative to control"}, "[30]": {"target": "Dual specificity mitogen-activated protein kinase kinase 4 (Homo sapiens) (UniProt P45985)", "test": "Inhibition of MKK4 at 1 uM relative to control"}, "[31]": {"target": "Platelet-derived growth factor receptor alpha (Homo sapiens, UniProt P16234)", "description": "Inhibition of PDGFRalpha by TR-FRET assay"}, "[32]": {"test": "Inhibition of casein kinase 2 at 1 uM relative to control"}, "[33]": {"target": "Tyrosine-protein kinase ABL1 (Homo sapiens, UniProt P00519)", "test": "Inhibition of Abl by TR-FRET assay"}, "[34]": {"test": "Cmax in Sprague-Dawley rat at 10 mg/kg, po", "assay_type": "ADME, organism-based", "set-up": "dose 10 mg/kg, route oral", "conditions": "in vivo"}, "[35]": {"system": "Mus musculus", "test": "Effect on SCF-induced mast cell activation in po dosed C57BL/6 mouse assessed as decrease in histamine release in blood", "assay_type": "functional, organism-based", "conditions": "C57BL/6, Blood"}, "[36]": {"target": "Mitogen-activated protein kinase 12 (Homo sapiens) (UniProt P53778)", "test": "Inhibition of p38-gamma at 1 uM relative to control"}, "[37]": {"test": "Oral bioavailability in Sprague-Dawley rat at 10 mg/kg", "assay_type": "ADME, organism-based", "conditions": "in vivo"}, "[38]": {"test": "AUC (0 to t) in Sprague-Dawley rat at 10 mg/kg, po", "assay_type": "ADME, organism-based", "set-up": "dose 10 mg/kg, route oral", "conditions": "plasma"}, "[39]": {"target": "Protein kinase C alpha type (Homo sapiens) (UniProt P17252)", "test": "Inhibition of PKCalpha at 1 uM relative to control"}, "[40]": {"system": "Plasma", "test": "Protein binding in po dosed C57BL/6 mouse plasma by ultracentrifugation", "assay_type": "ADME, organism-based", "conditions": "in vivo"}, "[41]": {"target": "Protein kinase C beta type (Homo sapiens) (UniProt P05771)", "sequence (P05771 2-671 limits assumed)": "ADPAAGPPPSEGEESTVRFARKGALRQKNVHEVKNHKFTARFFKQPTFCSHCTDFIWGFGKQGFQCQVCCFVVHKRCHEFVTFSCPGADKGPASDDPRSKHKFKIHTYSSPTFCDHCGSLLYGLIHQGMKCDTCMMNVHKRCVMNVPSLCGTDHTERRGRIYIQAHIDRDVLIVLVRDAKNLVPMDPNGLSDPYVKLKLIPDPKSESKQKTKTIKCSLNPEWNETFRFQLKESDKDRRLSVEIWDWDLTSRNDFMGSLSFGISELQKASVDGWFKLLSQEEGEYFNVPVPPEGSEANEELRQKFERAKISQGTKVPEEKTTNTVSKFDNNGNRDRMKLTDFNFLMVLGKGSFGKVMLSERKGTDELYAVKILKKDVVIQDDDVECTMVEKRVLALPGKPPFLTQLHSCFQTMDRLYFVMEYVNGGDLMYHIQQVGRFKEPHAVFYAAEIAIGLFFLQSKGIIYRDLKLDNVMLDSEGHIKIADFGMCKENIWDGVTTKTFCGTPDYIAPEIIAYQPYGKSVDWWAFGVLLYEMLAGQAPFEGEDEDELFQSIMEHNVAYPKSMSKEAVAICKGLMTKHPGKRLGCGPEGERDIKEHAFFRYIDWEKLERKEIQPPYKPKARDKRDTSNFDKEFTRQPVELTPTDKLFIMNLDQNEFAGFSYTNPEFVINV", "test": "Inhibition of PKCbeta at 1 uM relative to control"}, "[42]": {"test": "Inhibition of CAMK2 at 1 uM relative to control"}, "[43]": {"target": "Dual specificity mitogen-activated protein kinase kinase 6 (Homo sapiens) (UniProt P52564)", "test": "Inhibition of MKK6 at 1 uM relative to control"}, "[44]": {"target": "Mitogen-activated protein kinase 1 (Homo sapiens) (UniProt P28482)", "sequence (P28482 whole entry)": "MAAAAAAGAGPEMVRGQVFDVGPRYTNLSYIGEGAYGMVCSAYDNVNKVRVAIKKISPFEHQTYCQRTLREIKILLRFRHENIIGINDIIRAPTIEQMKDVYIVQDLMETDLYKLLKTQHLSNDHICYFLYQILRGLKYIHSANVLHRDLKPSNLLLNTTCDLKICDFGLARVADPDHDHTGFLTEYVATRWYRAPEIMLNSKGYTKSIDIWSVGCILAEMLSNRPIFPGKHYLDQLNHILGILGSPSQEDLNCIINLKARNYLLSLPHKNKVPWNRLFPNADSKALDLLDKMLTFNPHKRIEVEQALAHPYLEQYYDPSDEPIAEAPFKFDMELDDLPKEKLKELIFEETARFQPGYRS", "test": "Inhibition of MAPK1 at 1 uM relative to control"}, "[45]": {"target": "Mitogen-activated protein kinase 1 (Homo sapiens) (UniProt P28482)", "test": "Inhibition of MAPK2 at 1 uM relative to control"}, "[46]": {"target": "Mitogen-activated protein kinase 11 (Homo sapiens) (UniProt Q15759)", "sequence (Q15759 whole entry)": "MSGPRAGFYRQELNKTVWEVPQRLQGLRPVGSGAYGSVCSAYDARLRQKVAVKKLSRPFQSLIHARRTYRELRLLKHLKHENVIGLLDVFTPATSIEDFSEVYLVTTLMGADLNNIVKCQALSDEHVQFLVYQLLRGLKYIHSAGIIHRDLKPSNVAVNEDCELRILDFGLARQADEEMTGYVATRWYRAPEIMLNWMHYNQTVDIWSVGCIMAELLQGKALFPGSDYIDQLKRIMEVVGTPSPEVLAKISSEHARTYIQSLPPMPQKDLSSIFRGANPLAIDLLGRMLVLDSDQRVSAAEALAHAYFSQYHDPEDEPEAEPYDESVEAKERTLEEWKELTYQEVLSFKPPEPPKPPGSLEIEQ", "test": "Inhibition of p38beta at 1 uM relative to control"}, "[47]": {"target": "Mitogen-activated protein kinase 13 (Homo sapiens) (UniProt O15264)", "test": "Inhibition of p38delta at 1 uM relative to control"}, "[48]": {"target": "Tyrosine-protein kinase ZAP-70 (Homo sapiens) (UniProt P43403)", "test": "Inhibition of ZAP70 at 1 uM relative to control"}, "[49]": {"target": "Serine/threonine-protein kinase N2 (Homo sapiens) (UniProt Q16513)", "test": "Inhibition of PRK2 at 1 uM relative to control"}, "[50]": {"test": "Clearance in Sprague-Dawley rat at 1 mg/kg, iv", "assay_type": "ADME, organism-based", "set-up": "dose 1 mg/kg, route intravenous", "conditions": "in vivo"}}}
{"smiles": "Cc1ccn(-c2cccc(C(F)(F)F)c2)c(=O)c1-c1ccc2nc(N)ncc2c1", "values": [{"measurement": "IC50", "setting": "[1]", "result": 1700, "unit": "nM"}, {"measurement": "inhibition", "setting": "[2]", "result": "> 50", "unit": "%"}, {"measurement": "inhibition", "setting": "[3]", "result": "> 50", "unit": "%"}, {"measurement": "inhibition", "setting": "[4]", "result": "> 50", "unit": "%"}, {"measurement": "inhibition", "setting": "[5]", "result": "> 50", "unit": "%"}, {"measurement": "inhibition", "setting": "[6]", "result": "> 50", "unit": "%"}, {"measurement": "inhibition", "setting": "[7]", "result": "> 50", "unit": "%"}, {"measurement": "inhibition", "setting": "[8]", "result": "> 50", "unit": "%"}, {"measurement": "IC50", "setting": "[9]", "result": 6100, "unit": "nM"}, {"measurement": "IC50", "setting": "[10]", "result": 860, "unit": "nM"}, {"measurement": "inhibition", "setting": "[11]", "result": "> 50", "unit": "%"}, {"measurement": "half-life", "setting": "[12]", "result": 1.83, "unit": "h"}, {"measurement": "inhibition", "setting": "[13]", "result": "> 50", "unit": "%"}, {"measurement": "inhibition", "setting": "[14]", "result": "> 50", "unit": "%"}, {"measurement": "inhibition", "setting": "[15]", "result": "> 50", "unit": "%"}, {"measurement": "inhibition", "setting": "[16]", "result": "> 50", "unit": "%"}, {"measurement": "inhibition", "setting": "[17]", "result": "> 50", "unit": "%"}, {"measurement": "inhibition", "setting": "[18]", "result": "> 50", "unit": "%"}, {"measurement": "inhibition", "setting": "[19]", "result": 50, "unit": "%"}, {"measurement": "inhibition", "setting": "[20]", "result": "> 50", "unit": "%"}, {"measurement": "IC50", "setting": "[21]", "result": "> 5000", "unit": "nM"}, {"measurement": "inhibition", "setting": "[22]", "result": "> 50", "unit": "%"}, {"measurement": "inhibition", "setting": "[23]", "result": "> 50", "unit": "%"}, {"measurement": "inhibition", "setting": "[24]", "result": "> 50", "unit": "%"}, {"measurement": "inhibition", "setting": "[25]", "result": "> 50", "unit": "%"}, {"measurement": "Vd", "setting": "[26]", "result": 4.12, "unit": "L/kg"}, {"measurement": "inhibition", "setting": "[27]", "result": "> 50", "unit": "%"}, {"measurement": "inhibition", "setting": "[28]", "result": "> 50", "unit": "%"}, {"measurement": "inhibition", "setting": "[29]", "result": "> 50", "unit": "%"}, {"measurement": "inhibition", "setting": "[30]", "result": "> 50", "unit": "%"}, {"measurement": "IC50", "setting": "[31]", "result": 9, "unit": "nM"}, {"measurement": "inhibition", "setting": "[32]", "result": "> 50", "unit": "%"}, {"measurement": "IC50", "setting": "[33]", "result": 1400, "unit": "nM"}, {"measurement": "Cmax", "setting": "[34]", "result": 253, "unit": "ng/mL"}, {"measurement": "EC50", "setting": "[35]", "result": 12.6, "unit": "nM"}, {"measurement": "ED50", "setting": "[35]; po", "result": 4.7, "unit": "mg/kg"}, {"measurement": "inhibition", "setting": "[36]", "result": "> 50", "unit": "%"}, {"measurement": "bioavailability", "setting": "[37]", "result": 25, "unit": "%"}, {"measurement": "AUC(0-t)", "setting": "[38]", "result": 1040, "unit": "ng·h/mL"}, {"measurement": "inhibition", "setting": "[39]", "result": "> 50", "unit": "%"}, {"measurement": "Activity", "setting": "[40]", "result": 87.85, "unit": "%"}, {"measurement": "inhibition", "setting": "[41]", "result": "> 50", "unit": "%"}, {"measurement": "inhibition", "setting": "[42]", "result": 50, "unit": "%"}, {"measurement": "inhibition", "setting": "[43]", "result": "> 50", "unit": "%"}, {"measurement": "inhibition", "setting": "[44]", "result": "> 50", "unit": "%"}, {"measurement": "inhibition", "setting": "[45]", "result": "> 50", "unit": "%"}, {"measurement": "inhibition", "setting": "[46]", "result": "> 50", "unit": "%"}, {"measurement": "inhibition", "setting": "[47]", "result": "> 50", "unit": "%"}, {"measurement": "inhibition", "setting": "[48]", "result": "> 50", "unit": "%"}, {"measurement": "inhibition", "setting": "[49]", "result": "> 50", "unit": "%"}, {"measurement": "clearance", "setting": "[50]", "result": 41, "unit": "mL/min/kg"}]}
